Experimental data published in patent US5510469A, “2-acyloxy-4-morpholinyl anthracyclines” (priority 1990, dated 1996).
In brackets after ≈: the same amount, converted by molar mass. Like-named read-outs stand apart in the source and are kept apart here.

Key:
LoVo/DX cells = assay: Colony assay (cytotoxicity after 4 hr treatment), LoVo-resistant-doxorubicin (LoVo/DX) cells; assay type: cell-based; conditions: for IC50: read-out: IC50 (concentration inhibiting 50% colony growth), LoVo/DX; for R.I. = Resistance Index = (IC50 LoVo/DX)/(IC50 LoVo): ratio LoVo/DX to LoVo
Experimental: (§1) 3'-deamino-3' 2-benzoyl-4-morpholinyl!doxorubicin (1a) was tested "in vitro" against LoVo and LoVo-resistant-doxorubicin (LoVo/DX) cells using a single cell plating technique after 4 hr treatment (Colony assay). The 50% inhibition concentration (IC50) was calculated using concentration-response curves. Compound 1a was tested in comparison with Doxorubicin.
(§2) Cytotoxicity after 4 hr treatment IC50 = ng/ml^(1)
(§3) ^(1) IC50 = concentration inhibiting 50% colony growth
^(2) R.I. = Resistance Index = (IC50 LoVo/DX)/(IC50 LoVo)

[1] = system: P388/DX (Johnson) Leukemias; assay: Antitumor activity in vivo against P388 murine leukemia resistant to Doxorubicin (P388/DX, Johnson); conditions: P388/DX 10^5 cells/mouse i.v. in CDF mice; treatment on day 1; at optimal dose: 1a 1.2 mg/kg, Doxorubicin 13-16.9 mg/kg
Experimental: Antitumor activity against P388/DX
^(1) 10^5 cells/mouse (P388/DX, Johnson) transplanted i.v. in CDF
Treatment on day 1 after inoculation of tumor.
^(3) Median survival time; % over […] controls.
Compound 1a was evaluated "in vivo" against P388 murine Leukemias resistant to Doxorubicin, in comparison with Doxorubicin.

LoVo cells = assay: Colony assay (cytotoxicity after 4 hr treatment), LoVo cells; assay type: cell-based; conditions: Homo sapiens, read-out: IC50 (concentration inhibiting 50% colony growth), LoVo
Experimental: as §1, §2, §3

Question: Which IC50 (LoVo/DX cells; LoVo/DX, 4 h) does the source give for `COc1cccc2c1C(=O)c1c(O)c3c(c(O)c1C2=O)C[C@@](O)(C(=O)CO)C[C@@H]3O[C@H]1C[C@H](N2CCOC(OC(=O)c3ccccc3)C2)[C@H](O)[C@H](C)O1` (some centres unmarked) [Compound 1a] here?
Answer: Its IC50 is 0.027 µg/mL (≈ 0.0368 µM).

Question: What about the “R.I. = Resistance Index = (IC50 LoVo/DX)/(IC50 LoVo)” value (LoVo/DX cells; 4 hr treatment) of the same compound?
Answer: Its value is 3.9.

Question: And the “T/C % (median survival time; % over treated controls)” value [1]?
Answer: Its value is 175%.

Question: What about the IC50 (LoVo cells; LoVo, 4 h) of the same compound?
Answer: Its IC50 is 0.0069 µg/mL (≈ 0.0094 µM).

Question: Which results are given for `COc1cccc2c1C(=O)c1c(O)c3c(c(O)c1C2=O)C[C@@](O)(C(=O)CO)C[C@@H]3O[C@H]1C[C@H](N)[C@H](O)[C@H](C)O1` [Doxorubicin, doxorubicin]?
Answer: IC50 (LoVo/DX cells; LoVo/DX cells, 4 hr treatment, colony assay): 2.16 µg/mL (≈ 3.97 µM); R.I. = Resistance Index = (IC50 LoVo/DX)/(IC50 LoVo) (LoVo/DX cells; 4 hr treatment): 36; T/C % (median survival time; % over treated controls) [1]: 86-100%; IC50 (LoVo cells; LoVo cells, 4 hr treatment, colony assay): 0.06 µg/mL (≈ 0.11 µM)
